The values that follow come from patent US10604484B2, “Indolone compounds and their use as AMPA receptor modulators” (Janssen Pharmaceutica NV, priority 2015, dated 2020).

SMILES strings stand for the structures.

T1 sequence (P42261+Q8WXS5 fused): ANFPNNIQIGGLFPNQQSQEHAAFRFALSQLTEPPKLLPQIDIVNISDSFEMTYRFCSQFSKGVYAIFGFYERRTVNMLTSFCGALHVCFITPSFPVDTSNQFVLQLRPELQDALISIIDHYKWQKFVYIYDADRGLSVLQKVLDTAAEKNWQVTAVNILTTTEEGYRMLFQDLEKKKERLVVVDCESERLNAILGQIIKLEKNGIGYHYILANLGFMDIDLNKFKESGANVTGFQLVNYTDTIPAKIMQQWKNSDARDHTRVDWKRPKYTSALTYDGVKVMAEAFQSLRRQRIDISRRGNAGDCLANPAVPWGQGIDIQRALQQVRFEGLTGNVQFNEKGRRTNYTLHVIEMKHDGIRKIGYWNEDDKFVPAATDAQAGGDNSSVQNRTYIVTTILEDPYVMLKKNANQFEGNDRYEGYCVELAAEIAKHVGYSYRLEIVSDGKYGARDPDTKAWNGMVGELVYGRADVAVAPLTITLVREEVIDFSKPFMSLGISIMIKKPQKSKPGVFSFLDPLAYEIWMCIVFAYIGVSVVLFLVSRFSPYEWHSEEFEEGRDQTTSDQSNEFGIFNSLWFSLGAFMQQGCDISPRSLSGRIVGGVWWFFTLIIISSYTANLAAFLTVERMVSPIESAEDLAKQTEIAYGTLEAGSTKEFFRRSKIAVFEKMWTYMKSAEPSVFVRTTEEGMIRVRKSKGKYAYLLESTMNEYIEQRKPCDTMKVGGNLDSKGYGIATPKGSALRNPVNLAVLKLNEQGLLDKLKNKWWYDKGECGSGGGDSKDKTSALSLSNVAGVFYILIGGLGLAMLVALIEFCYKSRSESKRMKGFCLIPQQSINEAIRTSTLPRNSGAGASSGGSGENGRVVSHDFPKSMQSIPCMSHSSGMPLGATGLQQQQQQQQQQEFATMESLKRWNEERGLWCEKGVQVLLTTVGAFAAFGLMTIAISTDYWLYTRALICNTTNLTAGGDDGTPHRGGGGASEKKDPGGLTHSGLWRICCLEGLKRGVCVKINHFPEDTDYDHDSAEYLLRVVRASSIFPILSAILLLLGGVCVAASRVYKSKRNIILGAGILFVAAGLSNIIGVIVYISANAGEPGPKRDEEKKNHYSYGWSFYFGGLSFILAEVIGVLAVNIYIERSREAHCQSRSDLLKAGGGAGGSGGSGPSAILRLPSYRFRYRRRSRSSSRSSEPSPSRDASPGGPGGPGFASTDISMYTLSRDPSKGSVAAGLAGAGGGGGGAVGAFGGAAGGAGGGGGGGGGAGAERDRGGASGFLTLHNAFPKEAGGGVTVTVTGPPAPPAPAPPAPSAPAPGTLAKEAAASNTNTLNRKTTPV

The first test has as its target T1, GluA1o-γ8 (Homo sapiens, UniProt P42261+Q8WXS5).
T1 construct: expressed in transfected cells
Description: Calcium flux assay (FLIPR), inhibition of glutamate response of GluA1o-γ8 channel in HEK293 cells. Conditions: HEK293 cells stably expressing GRIA1o-CACNG8 fusion; 15 μM glutamate; pIC50 = negative log of the IC50 in molar. The format is cell-based. From the text: This assay was used to test compounds for their ability to inhibit TARP γ8 dependent AMPA receptor activity. The AMPA receptor is a non-selective cation channel activated by glutamate. Ionotropic glutamate receptors normally desensitize too rapidly to allow detectable calcium influx in a FLIPR assay (Strange et al. (2006). “Functional characterisation of homomeric ionotropic glutamate receptors GluR1-GluR6 in a fluorescence-based high throughput screening assay.” Comb Chem High Throughput Screen 9(2): 147-158). But, this desensitization is incomplete, and a substantial steady-state current remains in the sustained presence of glutamate (Cho et al. (2007). “Two families of TARP isoforms that have distinct effects on the kinetic properties of AMPA receptors and synaptic currents.” Neuron 55(6): 890-904).
An in vitro assay was used to determine the potency of test compounds as inhibitors of the glutamate response of the channel formed by GluA1o-γ8. To ensure a 1:1 stoichiometry of GluA1o and γ8 subunits in the expressed channel, a fusion of the cDNAs for GRIA1o and CACNG8 was used. Following Shi et al (2009) “The stoichiometry of AMPA receptors and TARPs varies by neuronal cell type.” Neuron 62(5): 633-640), the C-terminus of the cDNA for GRIA1o was fused to the N-terminus of the cDNA for γ8. The linker sequence was QQQQQQQQQQEFAT. Channels expressed with this construct appear to have similar properties to channels formed by co-expression of GRIA1o with an excess of CACNG8 (Shi et al. 2009). A clonal cell line in HEK293 cells stably expressing this construct, with a geneticin selection marker, was generated for use in this assay. Cell expressing the GRIA1o-CACNG8 fusion construct were grown in a monolayer in 96- or 384-well microtiter plates. They were washed with assay buffer (135 mM NaCl, 4 mM KCl, 3 mM CaCl2, 1 mM MgCl2, 5 mM glucose, 10 mM HEPES, pH 7.4, 300 mOs) using a Biotek EL405 plate washer. The cells were then loaded with a calcium-sensitive dye (Calcium-5 or Calcium-6, Molecular Devices) and the test compounds at a range of concentrations. Calcium flux following the addition of 15 μM glutamate was monitored using a Molecular Devices FLIPR Tetra.
The fluorescence in each well was normalized to the fluorescence of negative and positive control wells. The negative control wells had no added compounds, and the positive control wells had been incubated with 10 μM CP465022 (a non-subtype-selective AMPA receptor antagonist) (Lazzaro et al. (2002). “Functional characterization of CP-465,022, a selective, noncompetitive AMPA receptor antagonist.” Neuropharmacology 42(2): 143-153). The responses to glutamate as functions of the test compound concentrations were fitted to a four-parameter logistic function. The fitted parameter corresponding to the midpoint was taken to be the potency of inhibition of the compound. The data in Table 4 below illustrates the observed potentcy for the compounds described herein. pIC50 refers to the negative log of the IC50 in molar.
(In general: A change in cytosolic calcium serves as a functional read-out for many receptors and channels.)
With `Cc1cc(-c2c(Cl)cccc2OC(F)(F)F)cc2c1NC(=O)C2` [Example 127, 5-[2-Chloro-6-(trifluoromethoxy)phenyl]-7-methyl-indolin-2-one], the “GluR1-γ8 pIC50” value was determined as 9.7.

With `Cc1cc(-c2c(Cl)cncc2OC(F)F)cc2c1NC(=O)C2` [Example 146, 5-(3-Chloro-5-(difluoromethoxy)pyridin-4-yl)-7-methylindolin-2-one], the “GluR1-γ8 pIC50” value came to 8.1.

The test is the same for the next values; noted with them: HEK293 cells stably expressing GRIA1o-CACNG8 fusion; 15 μM glutamate; pIC50 = negative log of the IC50 in molar; read-out: GluR1-γ8 pIC50 (converted).
With `Cc1cc(-c2c(Cl)cccc2C(C)(C)C#N)cc2c1NC(=O)C2` [Example 132, 2-[3-Chloro-2-(7-methyl-2-oxo-indolin-5-yl)phenyl]-2-methyl-propanenitrile], the IC50 was 0.501 nM.

As to `N#Cc1ccc(Cl)c(-c2ccc3c(c2)CC(=O)N3)c1OC(F)(F)F` [Example 115, 4-Chloro-3-(2-oxoindolin-5-yl)-2-(trifluoromethoxy)benzonitrile], the IC50 was 12.6 nM.

Take `Cc1cc(-c2c(Cl)ccnc2Cl)cc2c1NC(=O)C2` [Example 152, 5-(2,4-Dichloro-3-pyridyl)-7-methyl-indolin-2-one]: the IC50 is 3.16 nM.

Take `O=C1Cc2cc(-c3c(Cl)cccc3Cl)ccc2N1` [Example 4, 5-(2,6-Dichlorophenyl)indolin-2-one]: the IC50 is 31.6 nM.

In the case of `Cc1cc(-c2c(Cl)cccc2OC(F)F)cc2c1NC(=O)C2` [Example 128, 5-[2-Chloro-6-(difluoromethoxy)phenyl]-7-methyl-indolin-2-one], the IC50 is 1 nM.

In the case of `Cc1cc(-c2c(Cl)ccc(C#N)c2OC(F)(F)F)cc2c1NC(=O)C2` [Example 133, 4-Chloro-3-(7-methyl-2-oxoindolin-5-yl)-2-(trifluoromethoxy)benzonitrile], the IC50 is 0.126 nM.

For the compound `N#Cc1cc(-c2c(Cl)cccc2OC(F)(F)F)cc2c1NC(=O)C2` [Example 175, 5-[2-Chloro-6-(trifluoromethoxy)phenyl]-2-oxo-indoline-7-carbonitrile], the IC50 was 0.631 nM.

`Cc1cccc(F)c1-c1cc(Cl)c2c(c1)CC(=O)N2` [Example 166, 7-Chloro-5-(2-fluoro-6-methyl-phenyl)indolin-2-one]: the IC50 is 0.794 nM.

Regarding `Cc1cc(-c2c(F)cccc2OC(F)F)cc2c1NC(=O)C2` [Example 131, 5-[2-(Difluoromethoxy)-6-fluoro-phenyl]-7-methyl-indolin-2-one], the IC50 is 5.01 nM.

`O=C1Cc2cc(-c3c(Cl)cccc3OC(F)(F)F)cc(OC(F)(F)F)c2N1` [Example 177, 5-[2-Chloro-6-(trifluoromethoxy)phenyl]-7-(trifluoromethoxy)indolin-2-one]: the IC50 was 0.2 nM.

`Cc1cc(-c2c(F)cccc2F)cc2c1NC(=O)C2` [Example 140, 5-(2,6-Difluorophenyl)-7-methyl-indolin-2-one]: the IC50 was 316 nM.

With `Cc1cccc(Cl)c1-c1cc(Cl)c2c(c1)CC(=O)N2` [Example 165, 7-Chloro-5-(2-chloro-6-methyl-phenyl)indolin-2-one], the IC50 is 0.0631 nM.

Take `O=C1Cc2cc(-c3c(Cl)cncc3Cl)cc(Cl)c2N1` [Example 159, 7-Chloro-5-(3,5-dichloro-4-pyridyl)indolin-2-one]: the IC50 was 7.94 nM.

Turning to `CCc1cc(-c2c(Cl)cncc2Cl)cc2c1NC(=O)C2` [Example 174, 5-(3,5-Dichloro-4-pyridyl)-7-ethyl-indolin-2-one], the IC50 is 5.01 nM.

On to `O=C1Cc2cc(-c3c(Cl)cccc3OC(F)F)cc(Cl)c2N1` [Example 154, 7-Chloro-5-[2-chloro-6-(difluoromethoxy)phenyl]indolin-2-one], for which the IC50 was 0.316 nM.

As for `Cc1cc(-c2c(C)cccc2C#N)cc2c1NC(=O)C2` [Example 138, 3-Methyl-2-(7-methyl-2-oxo-indolin-5-yl)benzonitrile], the IC50 is 2.51 nM.

On to `O=C1Cc2cc(-c3c(Cl)cccc3OC(F)(F)F)cc(F)c2N1` [Example 117, 5-(2-Chloro-6-(trifluoromethoxy)phenyl)-7-fluoroindolin-2-one], for which the IC50 is 3.16 nM.

As to `COc1nccc(C)c1-c1cc(Cl)c2c(c1)CC(=O)N2` [Example 162, 7-Chloro-5-(2-methoxy-4-methyl-3-pyridyl)indolin-2-one], the IC50 is 7.94 nM.

In the case of `Cc1cncc(C)c1-c1cc(F)c2c(c1)CC(=O)N2` [Example 125, 5-(3,5-Dimethyl-4-pyridyl)-7-fluoro-indolin-2-one], the IC50 was 251 nM.

As for `CCc1cc(-c2c(C)cncc2C)cc2c1NC(=O)C2` [Example 173, 5-(3,5-Dimethyl-4-pyridyl)-7-ethyl-indolin-2-one], the IC50 was 15.8 nM.

As to `Cc1cc(-c2cccc(C#N)c2C)cc2c1NC(=O)C2` [Example 134, 2-Methyl-3-(7-methyl-2-oxo-indolin-5-yl)benzonitrile], the IC50 was 100 nM.

`Cc1cc(-c2c(C)cccc2Cl)cc2c1NC(=O)C2` [Example 135, 5-(2-Chloro-6-methyl-phenyl)-7-methyl-indolin-2-one]: the IC50 is 0.398 nM.

Consider `Cc1cc(-c2c(Cl)cncc2Cl)cc2c1NC(=O)C2` [Example 147, 5-(3,5-Dichloro-4-pyridyl)-7-methyl-indolin-2-one], for which the IC50 was 7.94 nM.

As for `Cc1cccc(C(F)(F)F)c1-c1cc(Cl)c2c(c1)CC(=O)N2` [Example 167, 7-Chloro-5-[2-methyl-6-(trifluoromethyl)phenyl]indolin-2-one], the IC50 is 0.316 nM.

With `COC1CCN(c2cccc(-c3ccc4c(c3)CC(=O)N4)c2Cl)CC1` [Example 179, 5-[2-Chloro-3-(4-methoxy-1-piperidyl)phenyl]indolin-2-one], the IC50 was 6310 nM.

As to `CCc1cc(-c2c(C)cccc2F)cc2c1NC(=O)C2` [Example 171, 7-Ethyl-5-(2-fluoro-6-methyl-phenyl)indolin-2-one], the IC50 is 1.58 nM.

For the compound `N#Cc1ccc(OC(F)(F)F)c(-c2cc(F)c3c(c2)CC(=O)N3)c1Cl` [Example 124, 2-Chloro-3-(7-fluoro-2-oxo-indolin-5-yl)-4-(trifluoromethoxy)benzonitrile], the IC50 was 12.6 nM.

`Cc1cc(-c2c(Cl)cncc2OC(F)(F)F)cc2c1NC(=O)C2` [Example 145, 5-[3-Chloro-5-(trifluoromethoxy)-4-pyridyl]-7-methyl-indolin-2-one]: the IC50 was 3.16 nM.

Turning to `COc1cccc(OC(F)F)c1-c1cc(C)c2c(c1)CC(=O)N2` [Example 130, 5-[2-(Difluoromethoxy)-6-methoxy-phenyl]-7-methyl-indolin-2-one], the IC50 is 12.6 nM.

As for `Cc1cccc(Cl)c1-c1ccc2c(c1)CC(=O)N2` [Example 3, 5-(2-Chloro-6-methyl-phenyl)indolin-2-one], the IC50 is 100 nM.

As for `COC1CCN(c2cccc(-c3cc(F)c4c(c3)CC(=O)N4)c2Cl)CC1` [Example 121, 5-(2-Chloro-3-(4-methoxypiperidin-1-yl)phenyl)-7-fluoroindolin-2-one], the IC50 was > 10000 nM.

Take `O=C1Cc2cc(-c3c(Cl)cncc3Cl)cc(F)c2N1` [Example 126, 5-(3,5-Dichloro-4-pyridyl)-7-fluoro-indolin-2-one]: the IC50 was 316 nM.

With `O=C1Cc2cc(-c3c(Cl)cncc3OC(F)(F)F)cc(Cl)c2N1` [Example 157, 7-Chloro-5-(3-chloro-5-(trifluoromethoxy)pyridin-4-yl)indolin-2-one], the IC50 is 6.31 nM.

Turning to `Cc1cc(-c2c(C)ccnc2C)cc2c1NC(=O)C2` [Example 151, 5-(2,4-Dimethyl-3-pyridyl)-7-methyl-indolin-2-one], the IC50 is 631 nM.

For `Cc1cc(-c2c(F)cccc2Cl)cc2c1NC(=O)C2` [Example 141, 5-(2-Chloro-6-fluoro-phenyl)-7-methyl-indolin-2-one], the IC50 was 2 nM.

As to `Cc1cc(-c2c(Cl)cnc(C(F)(F)F)c2Cl)cc2c1NC(=O)C2` [Example 144, 5-(3,5-Dichloro-2-(trifluoromethyl)pyridin-4-yl)-7-methylindolin-2-one], the IC50 is 12.6 nM.
